Data published in patent US20140377201A1, “SKIN-WHITENING COMPOSITION CONTAINING EXTRACTS FROM TREES INCLUDING PAPER MULBERRY” (Amorepacific Corporation, priority 2010, published 2014).

How the values were obtained:
[1] = tested on: tyrosinase (SIGMA) extracted from mushrooms; test: Tyrosinase inhibitory effect; assay type: biochemical; conditions: positive control, 40 μg/ml of kojic acid; substrate tyrosine; 37° C.; absorbance at 475 nm
Protocol: The enzyme tyrosinase used in this Test Example was a tyrosinase (SIGMA) extracted from mushrooms. First, the substrate tyrosine was dissolved in distilled water at a concentration of 0.3 mg/ml, and 1.0 ml of the solution was placed in each test tube. Then, 1.0 ml of potassium-phosphate buffer (0.1 M, pH 6.8) and 0.7 ml of distilled water were added thereto, thereby preparing a mixed solution. […] Then, the test tube containing the reaction solution was quenched in ice water to stop the reaction, and the absorbance at 475 nm was measured with a photoelectric spectrophotometer. Then, the tyrosinase inhibitory activity of each of the extracts was calculated using the following equation 1, and the results of the calculation are shown in Table 1 below. Tyrosinase inhibition (%)=100−(absorbance of each extract/absorbance of control×100 [Equation 1]

B16/F10 melanoma cells = test: Melanin production inhibitory activity using B16/F10 melanoma cells; assay type: cell-based; conditions: 50 μg/ml of arbutin; incubated for 3 days; absorbance at 405 nm
Protocol: Samples, containing 0.001 wt % of each of the extracts of Examples 1 to 9 and Comparative Examples 1 to 3, and 50 /μg/ml of arbutin, were used as test materials. Each of the test materials was added to a culture of B16/F10 melanoma cells (Korean Cell Line Bank) at a given concentration and incubated for 3 days. The medium as removed, and the cells were washed with PBS and lysed with 1N NaOH, and the absorbance at 405 nm was measured. As a control, cells to which no test material was added were used. The skin whitening effects of the test materials were measured by measuring the melanin production inhibitory activity of each test material in comparison with the content of melanin in the control. Melanin production inhibition (%) was calculated using the following equation 2, and the calculation results are shown in Table 2 below.
Melanin production inhibition (%)=100−(absorbance of each test material/absorbance of control)×100 [Equation 2]

Row | Structure (SMILES) | Tyrosinase inhibition (%) [1] [%] | Melanin production inhibition (%) (B16/F10 melanoma cells)
1 | O=c1cc(CO)occ1O [Kojic acid, kojic acid] | 51 | –
2 | OC[C@H]1O[C@@H](Oc2ccc(O)cc2)[C@H](O)[C@@H](O)[C@@H]1O [Arbutin, arbutin] | – | 48
